Consider ten compounds from patent US9957252B2, “Metalloenzyme inhibitor compounds as fungicides” (Dow AgroSciences LLC, priority 2014, dated 2018).

Common to all, as to type: in vivo, Mycosphaerella graminicola on wheat plants (variety Yuma)
In assay [1] the test system is standard laboratory SEPTTR isolate (SI SEPTTR); Mycosphaerella graminicola; Anamorph: Septoria tritici. In words: Leaf blotch of wheat fungicidal activity, Type A assay (technical grade in acetone/water with Triton X-100, booth sprayer), standard laboratory isolate. The conditions noted are these: Zymoseptoria tritici, 24 h, 1 Day Protectant, wheat seedlings (Yuma), read-out: Disease control, SI SEPTTR Type A Assay (50 ppm) 1DP. On the procedure:
(§1) Evaluation of Fungicidal Activity: Leaf Blotch of Wheat (Mycosphaerella graminicola; Anamorph: Septoria tritici; Bayer code SEPTTR):
(§2) For Type A assays, technical grades of the experimental fungicides in Table 4 below were dissolved in acetone, and then mixed with nine volumes of water containing 110 ppm Triton X-100. The fungicide solutions were applied onto wheat seedlings using an automated booth sprayer. For Type B assays, emulsifiable concentrate (EC) formulations of technical grades of experimental fungicides in Table 4 below were prepared at 10% (w/v), and then mixed with 150 volumes of 0.1% Trycol 5941. The fungicide solutions were applied onto wheat seedlings using an automated track sprayer at 200 L/ha. All sprayed plants were allowed to air dry prior to further handling.
(§3) Wheat plants (variety Yuma) were grown from seed in a greenhouse in 50% mineral soil/50% soil-less Metro mix until the first leaf was fully emerged, with 7-10 seedlings per pot. Prior to or after application of experimental fungicides, plants were inoculated either with spores of a standard laboratory SEPTTR isolate (SI SEPTTR) or with spores from a SEPTTR field isolate collected from Wellsbourne, England in 2012 (FI SEPTTR). After inoculation, the plants were kept for 3 days at 20° C. in 100% relative humidity (one day in a dark dew chamber followed by two days in a lighted dew chamber). Plants were then transferred to a 20° C. greenhouse for disease development. When disease symptoms were fully expressed on untreated plants, infection levels on treated plants were assessed on a scale of 0 to 100 percent disease severity. Percent disease control was calculated using the ratio of disease severity on treated plants relative to untreated plants.

Assay [2] has the same test system. The assay can be described thus: Leaf blotch of wheat fungicidal activity, Type B assay (10% EC formulation in 0.1% Trycol 5941, track sprayer 200 L/ha), standard laboratory isolate. As to conditions: Zymoseptoria tritici, 72 h, wheat seedlings (Yuma). The procedure:
as §1, §2, §3

Assay [3] in a line: Leaf blotch of wheat fungicidal activity, Type B assay (10% EC formulation in 0.1% Trycol 5941, track sprayer 200 L/ha), field isolate. As to conditions: Zymoseptoria tritici, 72 h, field isolate (Wellsbourne, England 2012), wheat seedlings (Yuma). On the procedure:
as §1, §2, §3

The mark [4] stands for this setting: 3 Day Curative, read-out: Disease control, SI SEPTTR Type B Assay (100 g/ha) 3DC.
Where [5] appears, read: 3 Day Protectant, read-out: Disease control, SI SEPTTR Type B Assay (100 g/ha) 3DP.
The mark [6] stands for this setting: 3 Day Curative, read-out: Disease control, FI SEPTTR Type B Assay (100 g/ha) 3DC.
[7] abbreviates: 3 Day Protectant, read-out: Disease control, FI SEPTTR Type B Assay (100 g/ha) 3DP.

Where two headings read alike, the source gives them in different places.

For `CC(C)(C)C(O)(c1ccc(-c2ccc(C#N)cc2)cc1)c1cncnc1` (centres unmarked) [Compound 3], the pest or weed control at 50 ppm in assay [1] fell in the range of 80 to 100%. The pest or weed control at 100 g/ha in assay [2] (setting [4]) lay in the range of 60 to 79%; in assay [2] (setting [5]), 60 to 79%; in assay [3] (setting [6]), 80 to 100%; in assay [3] (setting [7]) it was 60 to 79%.
Regarding `CC(C)(C)C(O)(c1cncnc1)c1ccc(-c2ccc(OC(F)(F)F)cc2)cc1Cl` (centres unmarked) [Compound 8], the pest or weed control at 50 ppm in assay [1] lay in the range of 80 to 100%. The pest or weed control at 100 g/ha in assay [2] (setting [4]), in assay [2] (setting [5]), in assay [3] (setting [6]) and in assay [3] (setting [7]) was 80 to 100% throughout.
Take `CC(C)(C)C(O)(c1cncnc1)c1ccc(-c2ccc(C#N)cc2)cc1Cl` (centres unmarked) [Compound 9]: in assay [1], the pest or weed control at 50 ppm was in the range of 80 to 100%. Further, the pest or weed control at 100 g/ha in assay [2] (setting [4]) lay in the range of 80 to 100%; in assay [2] (setting [5]), 60 to 79%; in assay [3] (setting [6]) it was 80 to 100%; in assay [3] (setting [7]), 80 to 100%.
Take `CC(C)(C)C(O)(c1cncnc1)c1ccc(-c2ccc(OC(F)F)cc2)cc1Cl` (centres unmarked) [Compound 10]: the pest or weed control at 50 ppm in assay [1] is 80 to 100%. The pest or weed control at 100 g/ha in assay [2] (setting [4]) lay in the range of 80 to 100%; in assay [2] (setting [5]), 80 to 100%; in assay [3] (setting [6]) it was 80 to 100%; in assay [3] (setting [7]), 60 to 79%.
With `CC(C)(C)C(O)(c1ccc(-c2cccc(OC(F)(F)F)c2)cc1)c1cncnc1` (centres unmarked) [Compound 11], the pest or weed control at 50 ppm in assay [1] was 80 to 100%. The pest or weed control at 100 g/ha was in the range of 60 to 79% in assay [2] (setting [4]), 80 to 100% in assay [2] (setting [5]), 60 to 79% in assay [3] (setting [6]) and 60 to 79% in assay [3] (setting [7]).
As to `CC(C)(C)C(O)(c1ccc(-c2ccc(OCC(F)(F)F)cc2)cc1)c1cncnc1` (centres unmarked) [Compound 14], the pest or weed control at 50 ppm in assay [1] was in the range of 80 to 100%. In addition, the pest or weed control at 100 g/ha in assay [2] (setting [4]) lay in the range of 80 to 100%; in assay [2] (setting [5]), 80 to 100%; in assay [3] (setting [6]), 80 to 100%; in assay [3] (setting [7]), 60 to 79%.
On to `CC(C)(C)C(O)(c1cncnc1)c1ccc(-c2ccc(OCC(F)(F)F)cc2)cc1Cl` (centres unmarked) [Compound 25], for which the pest or weed control at 50 ppm in assay [1] was 80 to 100%. Besides, the pest or weed control at 100 g/ha in assay [2] (setting [4]) fell in the range of 80 to 100%; in assay [2] (setting [5]), 60 to 79%; in assay [3] (setting [6]), 80 to 100%; in assay [3] (setting [7]), 80 to 100%.
`CC(C)(C)C(O)(c1cncnc1)c1ccc(-c2ccc(OCC(F)(F)F)cc2)cc1F` (centres unmarked) [Compound 26]: the pest or weed control at 50 ppm in assay [1] is 80 to 100%. Further, the pest or weed control at 100 g/ha in assay [2] (setting [4]), in assay [2] (setting [5]), in assay [3] (setting [6]) and in assay [3] (setting [7]) was 80 to 100% in each case.
As for `CC(C)(C)C(O)(c1cncnc1)c1ccc(-c2ccc(C(F)(F)F)cc2F)cc1Cl` (centres unmarked) [Compound 30], the pest or weed control at 50 ppm in assay [1] was 80 to 100%. For the same compound, the pest or weed control at 100 g/ha in assay [2] (setting [4]), in assay [2] (setting [5]), in assay [3] (setting [6]) and in assay [3] (setting [7]) was 80 to 100% in each case.
As to `CC(C)(C)C(O)(c1ccc(-c2ccc(C3(C#N)CC3)cc2)cc1)c1cncnc1` (centres unmarked) [Compound 32], the pest or weed control at 50 ppm in assay [1] lay in the range of 80 to 100%. Also, the pest or weed control at 100 g/ha in assay [2] (setting [4]) lay in the range of 80 to 100%; in assay [2] (setting [5]), 80 to 100%; in assay [3] (setting [6]), 60 to 79%; in assay [3] (setting [7]), 80 to 100%.
